Tests used:
Nav1.1 = Nav1.1 (Homo sapiens (Human), UniProt P35498); experiment: Voltage-clamp, Nav1.1 in HEK-293 cells; assay type: cell-based; details: holding potential -90 mV, 0.1 Hz; read-out: EC50 or IC50, Nav1.1
Experimental: All experiments were conducted at room temperature (22-24° C.) with an EPC-10 amplifier and Pulse software (HEKA, Lambrecht/Pfalz, Germany) in the whole-cell mode of the patch-clamp technique. Human embryonic kidney (HEK)-293 cell lines stably expressing hNav1.1, hNav1.5, hNav1.7 channels (generously provided by Dr. Christopher Lossin, University of California Davis), hNav1.4 (Frank Lehmann-Horn, University of Ulm), or hKv2.1 channels (James Trimmer, University of California Davis) were bathed in extracellular solution containing (in mM): 160 NaCl; 4.5 KCl; 1 MgCl2; 2 CaCl2; 10 HEPES [pH was adjusted to 7.4 using NaOH (310 mOsm)]. Pipettes were filled with intracellular solution containing (in mM): 145 KF; 2 MgCl2; 10 ethylene glycol tetraacetic acid; 10 HEPES (pH adjusted to 7.2 with KOH; 300 mOsm). Neuroblastoma N1E-115 cells (ATCC, Manassa, Va., USA) expressing Nav1.2 were patched with a CsF internal solution consisting of (in mM): 10 NaF; 110 CsF; 20 CsCl; 2 ethylene glycol tetraacetic acid; 10 HEPES (CsOH to pH 7.35; 300 mOsm). All pipette tip resistances were 2-4 MΩ. Series resistances of 3-10 MΩ were compensated 40-80%. All cells were voltage-clamped to a holding potential of −90 mV unless otherwise specified. The sampling frequency was 5 kHz. Na^+ currents were elicited by 30-ms pulse to 0 mV from −90 mV applied every 10 s. […]

[1] = Plasma protein binding by ultrafiltration; assay type: in vitro ADME; details: rat plasma
Experimental: For intravenous application, SKA-19 was dissolved at 5 mg/mL in a mixture of 10% CremophorEL (Sigma-Aldrich, St. Louis, Mo., USA) and 90% phosphate-buffered saline and then injected at 10 mg/kg into the tail vein of Sprague-Dawley rats. At various time points after the injection, ˜100 to 200 μL of blood was collected from a tail nick into EDTA blood sample collection tubes. Plasma was separated by centrifugation and stored at −80° C. pending analysis. For intraperitoneal application SKA-19 was dissolved in Miglyol 812 neutral oil (caprylic/capric triglyceride; Trade name Neobee M5, Spectrum Chemicals, Gardena, Calif., USA) at 2 mg/mL and injected intraperitoneally at 10 and 30 mg/kg. After determining that SKA-19 plasma concentrations peaked 2 h after i.p. application, a group of 3 rats was subjected to cardiac puncture under deep isoflurane anesthesia and then sacrificed before removing brain, heart, liver, spleen and fat. Tissue samples were homogenized in 1 ml of H2O with a Brinkman Kinematica PT 1600E homogenizer and the protein precipitated with 1 ml of acetonitrile. The samples were then centrifuged at 3000 rpm and supernatants concentrated to 1 ml. Plasma and homogenized tissue samples were purified using C18 solid phase extraction cartridges. Eluted fractions corresponding to SKA-19 were dried under nitrogen and reconstituted in acetonitrile. […] Using electrospray ionization MS and selective reaction monitoring (SRM) (capillary temperature 350° C., capillary voltage 4000 V, collision energy −26 eV, positive ion mode), SKA-19 was quantified by its base peak of 182.9 m/z (C7H7N2S2^•+ fragment) and its concentration was calculated with a 9-point calibration curve from 50 nmol/L to 10 μmol/L. The percentage of plasma protein binding for SKA-19 was determined by ultrafiltration. […] The centrifugate (=free SKA-19) was directly analyzed for SKA-19 by UPLC-MS. […]

6 Hz seizures = experiment: 6 Hz seizure test, compounds given i.p. as solution; assay type: in vivo; details: Mus musculus, ip, 10 min, mice, values stated uncertain
Experimental: The mouse maximal electroshock (MES) and 6 Hz seizure models were used. Motor toxicity was assessed using a modification of the horizontal screen test. ED50 values in the seizure models and TD50 values in the toxicity test were determined by nonlinear fitting of dose-response curves. […] Drugs solutions were injected intraperitoneally 10 min prior to administration of the electrical stimulus in a volume of 10 ml/kg body weight.

Nc1nc2ccc(SC(F)(F)F)cc2s1 [SKA-19, 6-((trifluoromethyl)thio)benzo[d]thiazol-2-amine]
IC50 (Nav1.1): 6.9 ± 4.9 µM
fraction unbound [1]: 0.11 to 0.18
fraction unbound at 15 min [1]: 0.11
unbound (free) fraction [1]: 9.0±0.4%
ED50 (6 Hz seizures): 22.5 mg/kg

Source: patent US9675591B2, “Methods for treating seizure disorders and pain” (THE REGENTS OF THE UNIVERSITY OF CALIFORNIA, priority 2013, dated 2017)
